Reference: ChEMBL document CHEMBL5096184, “Structure activity relationship in β-carboline derived anti-malarial agents” (Eur J Med Chem, 2021)
Values after ≈ are worked out from the molar mass of the structure shown. Values joined by “and” are separate entries in the source; they are usually repeats but may differ in a detail not shown here. Equal values may be shown once.

Tests used:
Plasmodium falciparum [1] = test: Antimalarial activity against Plasmodium falciparum NF54 assessed as delayed-death phenotype incubated 72 to 96 hrs by SYBR green staining method; assay type: functional, organism-based
Plasmodium falciparum [2] = test: Antimalarial activity against Plasmodium falciparum D6; assay type: functional, organism-based
Trypanosoma cruzi = test: Antitrypanosomal activity against Trypanosoma cruzi Tulahuen C2C4; assay type: functional, organism-based
Trypanosoma brucei = test: Antitrypanosomal activity against Trypanosoma brucei rhodesiense STIB 900; assay type: functional, organism-based
[3] = Cytotoxicity against rat L6 cells assessed as reduction in cell viability; assay type: toxicity, cell-based
Plasmodium falciparum [4] = test: Antimalarial activity against Plasmodium falciparum K1; assay type: functional, organism-based
[5] = Selectivity index, ratio of IC50 for rat L6 cells to IC50 for Plasmodium falciparum K1; assay type: toxicity; conditions: L6 cells versus Plasmodium falciparum K1, read-out: Ratio IC50
Leishmania donovani = test: Antileishmanial activity against Leishmania donovani MHOM-ET-67/L82; assay type: functional, organism-based
Plasmodium falciparum [6] = test: Antiplasmodial activity against chloroquine sensitive Plasmodium falciparum FCCI-HN assessed as decrease in parasitemia level incubated for 24 hrs by Giemsa staining method; assay type: functional, organism-based
[7] = Cytotoxicity against human MRC5 cells; assay type: toxicity, cell-based
Plasmodium falciparum [8] = test: Antiplasmodial activity against GHA chloroquine sensitive Plasmodium falciparum; assay type: functional, organism-based
Plasmodium falciparum [9] = test: Antiplasmodial activity against chloroquine sensitive Plasmodium falciparum FCB1-R/Colombia; assay type: functional, organism-based
Plasmodium falciparum [10] = test: Antiplasmodial activity against chloroquine sensitive Plasmodium falciparum FCA 20/Ghana; assay type: functional, organism-based; conditions: Plasmodium falciparum, FCA 20/Ghana
Plasmodium falciparum [11] = test: Antiplasmodial activity against chloroquine sensitive Plasmodium falciparum W2/Indochina; assay type: functional, organism-based; conditions: Plasmodium falciparum, W2/Indochina
Plasmodium falciparum [12] = test: Antiplasmodial activity against chloroquine sensitive Plasmodium falciparum K1; assay type: functional, organism-based
Plasmodium falciparum [13] = test: Antimalarial activity against Plasmodium falciparum W2; assay type: functional, organism-based
Plasmodium = test: Antimalarial activity against Plasmodium; assay type: functional, organism-based
Plasmodium falciparum [14] = test: Antimalarial activity against Plasmodium falciparum; assay type: functional, organism-based
Plasmodium falciparum [15] = test: Antimalarial activity against chloroquine sensitive Plasmodium falciparum FcM29-Cameroon in human RBC; assay type: functional, organism-based; conditions: Erythrocyte
Plasmodium falciparum [16] = test: Antimalarial activity against Plasmodium falciparum incubated for 72 hrs by SYBR green I-based assay; assay type: functional, organism-based

Work on O=C(O)C1Cc2c([nH]c3ccccc23)C(c2ccc(Cl)cc2Cl)N1 (centres undefined) yielded an IC50 (Plasmodium falciparum [1]) of 210 µM.
With O[C@]12C=C[C@@H]3CCN(CCCC/C=C\CC1)C[C@@]31C[C@@H]3CCCCCCN3[C@H]12 the IC50 (Plasmodium falciparum [2]) was 0.2 µg/mL (≈ 0.52 µM).
Work on Brc1cccc2c1[nH]c1c[n+](Cc3cccc4ccccc34)ccc12 yielded an IC50 (Trypanosoma cruzi) of 7.9 µM, an IC50 (Trypanosoma brucei) of 4.4 µM and an IC50 [3] of 3.7 µM. For the same compound, the IC50 (Plasmodium falciparum [4]) was 0.502 µM, the selectivity ratio [5] was 7 and the IC50 (Leishmania donovani) was 46.4 µM.
Work on C/C=C(/CO[C@@H]1O[C@H](CO)[C@@H](O)[C@H](O)[C@H]1O)c1cc2n(c(=O)c1CO)CCc1c-2[nH]c2ccccc12 yielded an IC50 (Plasmodium falciparum [6]) of 9.7 µM.
For NCCCC[C@H]1NC(=O)[C@H]2Cc3c([nH]c4ccccc34)C(c3ccc4c(c3)OCO4)N2C1=O (some centres undefined), the IC50 [7] was over 64 µM and the IC50 (Plasmodium falciparum [8]) was 4 µM.
In the case of C=C[C@H]1CN2CCc3c([nH]c4ccccc34)[C@@H]2C[C@@H]1CC1c2[nH]c3ccccc3c2CCN1C (some centres undefined), the IC50 (Plasmodium falciparum [9]) is reported as 2 µM, the IC50 (Plasmodium falciparum [10]) is reported as 2.5 µM and the IC50 (Plasmodium falciparum [11]) is reported as 2.36 µM.
In the case of C[n+]1ccc2c(c1)[nH]c1ccc(Br)cc12, the IC50 (Leishmania donovani) is reported as over 223 µM.
With C/C=C1\CN2CCc3c([nH]c4ccccc34)[C@@H]2C[C@@H]1Cc1nccc2c1[nH]c1ccccc12 the IC50 (Plasmodium falciparum [9]) was under 2 µM, the IC50 (Plasmodium falciparum [10]) was 1.52 µM and the IC50 (Plasmodium falciparum [11]) was 0.594 µM.
Work on O=C1N[C@@H](COCc2ccccc2)C(=O)N2C(c3ccc4c(c3)OCO4)c3[nH]c4ccccc4c3C[C@H]12 (some centres undefined) yielded an IC50 [7] of over 64 µM and an IC50 (Plasmodium falciparum [8]) of over 64 µM.
O=c1c(O[C@@H]2OC[C@](O)(CO[C@@H]3O[C@H](CO)[C@@H](O)[C@H](O)[C@H]3O)[C@H](O)[C@H]2O)cc2nccc3c4ccccc4n1c23 gave an IC50 (Plasmodium falciparum [12]) of 25 µM.
C/C=C1\CN2CCc3c([nH]c4ccccc34)[C@@H]2C[C@@H]1CC1=NCCc2c1[nH]c1ccccc21 gave an IC50 (Plasmodium falciparum [9]) of under 2 µM, an IC50 (Plasmodium falciparum [10]) of 0.857 µM and an IC50 (Plasmodium falciparum [11]) of 0.032 µM.
In the case of O[C@]12C=C[C@@H]3CCN(CCCCCCCC1)C[C@@]31C[C@@H]3CCCCCCN3[C@H]12, the IC50 (Plasmodium falciparum [2]) is reported as 0.082 µg/mL (≈ 0.212 µM).
In the case of C/C=C1/COC(=O)c2c1cc1n(c2=O)CCc2c-1[nH]c1c(O[C@@H]3O[C@H](CO)[C@@H](O)[C@H](O)[C@H]3O)cccc21, the IC50 (Plasmodium falciparum [6]) is reported as 42.1 µM.
Cn1c2c(c3ccccc31)C[C@@H]1C(=O)N([C@@H]3CCN(Cc4ccccc4)C3)CC(=O)N1[C@@H]2c1ccc2c(c1)OCO2 gave an IC50 [7] of over 64 µM.
Compound Oc1cccc2c1[nH]c1c(C3=C[C@@]4(O)CC/C=C\CCCCN5CC[C@@H]3[C@]3(C[C@@H]6/C=C\CCCCN6[C@H]34)C5)nccc12 has an IC50 (Plasmodium falciparum [13]) of 0.008 µg/mL (≈ 0.0142 µM), an IC50 (Plasmodium) of 0.0061 µg/mL (≈ 0.0108 µM) and an IC50 (Plasmodium falciparum [2]) of 0.006 µg/mL (≈ 0.0106 µM).
CC1(C)Cc2c([nH]c3ccccc23)C2(N1)C(=O)Nc1ccc(Cl)cc12 (racemic) showed an IC50 (Plasmodium falciparum [14]) of 0.0027 µM.
CCCc1cccc(-[n+]2ccc3c(c2)[nH]c2ccc(Br)cc23)c1 gave an IC50 (Trypanosoma cruzi) of 12.6 µM, an IC50 (Trypanosoma brucei) of 4.5 µM and an IC50 [3] of 27.5 µM. For the same compound, the IC50 (Plasmodium falciparum [4]) was 0.459 µM, the selectivity ratio [5] was 60 and the IC50 (Leishmania donovani) was 20.4 µM.
In the case of COC(=O)C1=CO[C@@H](C)[C@@H]2CN3CCc4c([nH]c5ccc(OC)cc45)[C@@H]3C[C@H]12 [ARICINE], the IC50 (Plasmodium falciparum [15]) is reported as 0.3 µg/mL and 690 nM.
Compound Brc1ccc2[nH]c3c[n+](Cc4cccc5ccccc45)ccc3c2c1 has an IC50 (Trypanosoma cruzi) of 7.5 µM, an IC50 (Trypanosoma brucei) of 4.1 µM and an IC50 [3] of 5.1 µM. The IC50 (Plasmodium falciparum [4]) was 0.481 µM, the selectivity ratio [5] was 11 and the IC50 (Leishmania donovani) was 17.7 µM.
C=C[C@H]1CN2CCc3c([nH]c4c([C@@H]5CCCN5C)c(O)ccc34)[C@@H]2C[C@@H]1CC1c2[nH]c3ccccc3c2CCN1C (some centres undefined) showed an IC50 (Plasmodium falciparum [9]) of under 0.5 µM, an IC50 (Plasmodium falciparum [10]) of 0.12 µM and an IC50 (Plasmodium falciparum [11]) of 0.152 µM.
For O=C1N[C@@H](Cc2c[nH]c3ccccc23)C(=O)N2C(c3ccc4c(c3)OCO4)c3[nH]c4ccccc4c3C[C@H]12 (some centres undefined), the IC50 [7] was 35 µM and the IC50 (Plasmodium falciparum [8]) was 25 µM.
COC(=O)[C@@H]1[C@H]2C[C@H]3c4[nH]c5ccccc5c4CCN3C[C@@H]2CC[C@@H]1O [YOHIMBINE] showed an EC50 (Plasmodium falciparum [16]) of over 50 µM.
With CC(C)(C)OC(=O)CC[C@@H]1NC(=O)[C@H]2Cc3c([nH]c4ccccc34)C(c3ccc4c(c3)OCO4)N2C1=O (some centres undefined) the IC50 [7] was over 64 µM and the IC50 (Plasmodium falciparum [8]) was 60 µM.
CC(=O)OC1=CO[C@@H](O[C@@H]2O[C@H](CO)[C@@H](O)[C@H](O)[C@H]2O)[C@H]2[C@@H]1C[C@@]13O[C@@H]2CN1CCC1c2ccccc2NC13 (some centres undefined) gave an IC50 (Plasmodium falciparum [12]) of 6.77 µM.
In the case of [O-][N+]12CCCC/C=C\[C@H]1C[C@]13C[N@@+]4([O-])CCCC/C=C\CC[C@](O)(C=C[C@@H]1CC4)[C@@H]32 (some centres undefined), the IC50 (Plasmodium falciparum [2]) is reported as 0.017 µg/mL (≈ 0.041 µM).
